Reference: patent publication EP1389624A1, “Phosphorous-containing cysteine and serine protease inhibitors” (CEPHALON, INC., priority 1995, dated 1997)
Counter-ions that a name gives are not always drawn. Like-named read-outs stand apart in the source and are kept apart here.

Target: T1, Calpain I (Homo sapiens, UniProt P07384)
T1 sequence (P07384 1-714): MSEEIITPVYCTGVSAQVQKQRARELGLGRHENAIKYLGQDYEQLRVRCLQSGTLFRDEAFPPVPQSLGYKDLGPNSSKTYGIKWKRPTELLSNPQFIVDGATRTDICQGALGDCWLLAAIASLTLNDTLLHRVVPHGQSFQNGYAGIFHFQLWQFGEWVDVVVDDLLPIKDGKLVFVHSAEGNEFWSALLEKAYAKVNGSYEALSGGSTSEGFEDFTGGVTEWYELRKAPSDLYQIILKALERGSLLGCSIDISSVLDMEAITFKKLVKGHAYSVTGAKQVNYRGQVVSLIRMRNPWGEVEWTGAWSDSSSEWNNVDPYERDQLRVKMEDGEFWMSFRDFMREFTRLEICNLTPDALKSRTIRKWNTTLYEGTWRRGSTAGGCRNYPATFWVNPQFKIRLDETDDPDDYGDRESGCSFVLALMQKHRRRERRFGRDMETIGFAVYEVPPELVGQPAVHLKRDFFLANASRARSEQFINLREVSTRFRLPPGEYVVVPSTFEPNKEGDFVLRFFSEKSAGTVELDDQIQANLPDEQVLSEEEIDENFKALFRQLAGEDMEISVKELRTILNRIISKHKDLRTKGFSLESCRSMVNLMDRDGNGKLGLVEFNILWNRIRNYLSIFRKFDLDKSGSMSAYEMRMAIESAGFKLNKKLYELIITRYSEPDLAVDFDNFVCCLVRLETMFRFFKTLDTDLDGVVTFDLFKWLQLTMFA
T1 sequence (P04632 1-268 partner): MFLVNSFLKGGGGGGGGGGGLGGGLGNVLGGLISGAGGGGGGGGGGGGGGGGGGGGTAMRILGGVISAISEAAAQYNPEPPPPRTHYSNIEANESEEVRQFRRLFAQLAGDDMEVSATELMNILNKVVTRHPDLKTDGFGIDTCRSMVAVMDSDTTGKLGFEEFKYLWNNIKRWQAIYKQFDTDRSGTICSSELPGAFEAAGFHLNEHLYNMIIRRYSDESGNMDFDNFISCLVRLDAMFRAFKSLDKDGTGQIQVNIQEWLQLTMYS
Assay: Inhibition and rate of inactivation of cysteine protease (calpain I) activity, Succ-Leu-Tyr-MNA substrate hydrolysis
Details: for kinact/KI: read-out: kobs/I x 10^-3 M^-1s^-1; for inhibition at 0.1 µM: read-out: % Inhib. @ 0.1 uM

[1] = apparent second order rate constant of inactivation from reaction progress curves under pseudo-first order conditions, mean of three or more determinations

Experimental: To evaluate inhibitory activity, stock solutions (40 times concentrated) of each compound to be tested were prepared in 100% anhydrous DMSO and 5 µl of each inhibitor preparation were aliquoted into each of three wells of a 96 well plate. […] To start the reaction, 20 µl of 50 mM CaCl2 in assay buffer was added to all wells of the plate, excepting three, which were used as background signal baseline controls. Substrate hydrolysis was monitored every 5 minutes for a total of 30 minutes. Substrate hydrolysis in the absence of inhibitor was linear for up to 15 minutes.
Inhibition of calpain I activity was calculated as the percent decrease in the rate of substrate hydrolysis in the presence of inhibitor (vi) relative to the rate in its absence (vo). Comparison between vo and vi was made within the linear range for substrate hydrolysis. […] Apparent second order rate constants were determined from analysis of reaction progress curves under pseudo-first order conditions. Each determination represents the mean of three or more independent single cuvette analyses continually monitored via a Perkin-Elmer LS50B spectrofluorimeter.

Row | SMILES | kinact/KI [M⁻¹ s⁻¹] | inhibition at 0.1 µM [%] | also measured
1 | CC(C)C[C@H](NC(=O)OCc1ccccc1)C(=O)N[C@@H](Cc1ccccc1)C(=O)COP(=O)(OCc1ccccc1)OCc1ccccc1 [Example 34, Dibenzyl (3S)-[3-[(N-Benzyloxycarbonyl-L-leucyl)amino]-2-oxo-4-phenylbutyl] phosphate] | 100000 |  | 
2 | CC(C)C[C@H](NC(=O)OC(C)(C)C)C(=O)N[C@@H](Cc1ccccc1)C(=O)COP(=O)(OCc1ccccc1)OCc1ccccc1 [Example 35, Dibenzyl (3S)-[3-[(N-t-Butoxycarbonyl-L-leucyl)amino]-2-oxo-4-phenylbutyl] phosphate] | 242000 | 100 | 
3 | CC(C)CC(NC(=O)C12OC3COC(C)(C)OC3C1OC(C)(C)O2)C(=O)NC(Cc1ccccc1)C(=O)COP(=O)(OCc1ccccc1)OCc1ccccc1 [Example 37, Dibenzyl (3S)-[3-[(N-diisopropylidine-2-keto-L-gulonyl-L-leucyl)amino)-2-oxo-4-phenylbutyl] phosphate] |  |  | kobs/I x 10^-3 M^-1s^-1: 113 x 10^-3 M^-1s^-1
4 | CC(C)C[C@H](NC(=O)C12OC(CO)C(O)C1OC(C)(C)O2)C(=O)N[C@@H](Cc1ccccc1)C(=O)COP(=O)(OCc1ccccc1)OCc1ccccc1 (stereo partly drawn) [Example 38, Dibenzyl (3S)-[3-[(N-monoisopropylidine-2-keto-L-gulonyl-L-leucyl)amino]-2-oxo-4-phenylbutyl] phosphate] |  |  | kobs/I x 10^-3 M^-1s^-1 [1]: 116 x 10^-3 M^-1s^-1
5 | Cc1ccccc1COP(=O)(OCC(=O)[C@H](Cc1ccccc1)NC(=O)[C@H](CC(C)C)NC(=O)OCc1ccccc1)OCc1ccccc1C [Example 39, Bis(2-methylbenzyl) (3S)-[3-[(N-Benzyloxycarbonyl-L-leucyl)amino]-2-oxo-4-phenylbutyl] phosphate] | 365000 |  | 
6 | CC(C)C[C@H](NC(=O)OCc1ccccc1)C(=O)N[C@@H](Cc1ccccc1)C(=O)COP(=O)(OCc1cccc(Oc2ccccc2)c1)OCc1cccc(Oc2ccccc2)c1 [Example 40, Bis(3-phenoxybenzyl) (3S)-[3-[(N-Benzyloxycarbonyl-L-leucyl)amino]-2-oxo-4-phenylbutyl] phosphate] |  | 53 | 
7 | CC(C)C[C@H](NC(=O)OC(C)(C)C)C(=O)N[C@@H](Cc1ccccc1)C(=O)COP(=O)(O)O [Example 41, Dihydrogen (3S)-[3-[(N-t-Butoxycarbonyl-L-leucyl)amino]-2-oxo-4-phenylbutyl] phosphate] | < 20000 | 7 | 
8 | COP(=O)(OC)OCC(=O)[C@H](Cc1ccccc1)NC(=O)[C@H](CC(C)C)NC(=O)OCc1ccccc1 [Example 42, Dimethyl (3S)-[3-[(N-Benzyloxycarbonyl-L-leucyl)amino]-2-oxo-4-phenylbutyl] phosphate] | 20000 |  | 
9 | CCCCOP(=O)(OCCCC)OCC(=O)[C@H](Cc1ccccc1)NC(=O)[C@H](CC(C)C)NC(=O)OCc1ccccc1 [Example 43, Dibutyl (3S)-[3-[(N-Benzyloxycarbonyl-L-leucyl)amino]-2-oxo-4-phenylbutyl] phosphate] | 40000 |  | 
10 | CCCCC(CC)COP(=O)(OCC(=O)[C@H](Cc1ccccc1)NC(=O)[C@H](CC(C)C)NC(=O)OCc1ccccc1)OCC(CC)CCCC (stereo partly drawn) [Example 44, Bis(2-ethylhexyl) (3S)-[3-[(N-Benzyloxycarbonyl-L-leucyl)amino]-2-oxo-4-phenylbutyl] phosphate] | 1000 |  | 
11 | CC(C)C[C@H](NC(=O)OC(C)(C)C)C(=O)N[C@@H](Cc1ccccc1)C(=O)COP(=O)(OCCC1CCCCC1)OCCC1CCCCC1 [Example 45, Bis(2-cyclohexylethyl) (3S)-[3-[(N-t-Butoxycarbonyl-L-leucyl)amino]-2-oxo-4-phenylbutyl] phosphate] |  | 28 | 
12 | CC(C)C[C@H](NC(=O)OCc1ccccc1)C(=O)N[C@@H](Cc1ccccc1)C(=O)COP(=O)(OCCc1ccccc1)OCCc1ccccc1 [Example 46, Diphenethyl (3S)-[3-[(N-Benzyloxycarbonyl-L-leucyl)amino]-2-oxo-4-phenylbutyl] phosphate] | 380000 | 99 | 
13 | CC(C)C[C@H](NC(=O)OCc1ccccc1)C(=O)N[C@@H](Cc1ccccc1)C(=O)COP1(=O)OCC(OCc2ccccc2)CO1 (some centres unmarked) [Example 47] |  | 47 | 
14 | CC(C)C[C@H](NC(=O)OCc1ccccc1)C(=O)N[C@@H](Cc1ccccc1)C(=O)COP(=O)(OCc1ccccc1)c1ccccc1 (stereo partly drawn) [Example 49, Benzyl (3S)-[3-[(N-Benzyloxycarbonyl-L-leucyl)amino]-2-oxo-4-phenylbutyl]phenylphosphonate] |  | 90 | 
15 | CC(C)C[C@H](NC(=O)OCc1ccccc1)C(=O)N[C@@H](Cc1ccccc1)C(=O)COP(=O)(OCCN1CCOCC1)c1ccccc1 (stereo partly drawn) [Example 50, 2-(Morpholin-4-yl)ethyl (3S)-[3-[(N-benzyloxycarbonyl-L-leucyl)amino]-2-oxo-4-phenylbutyl] phenylphosphonate hydrochloride] | 70000 |  | 
16 | CC(C)C[C@H](NC(=O)OCc1ccccc1)C(=O)N[C@@H](Cc1ccccc1)C(=O)COP(=O)(OCCN1CCCC1=O)c1ccccc1 (stereo partly drawn) [Example 51, (3S)-[3-[(N-Benzyloxycarbonyl-L-leucyl)amino]-2-oxo-4-phenylbutyl] 2-(2-oxopyrrolidin-1-yl)ethyl phenylphosphonate] | 26000 |  | 
17 | CC(C)C[C@H](NC(=O)OCc1ccccc1)C(=O)N[C@@H](Cc1ccccc1)C(=O)COP(C)(C)=O [Example 52, (3S)-[3-[(N-Benzyloxycarbonyl-L-leucyl)amino]-2-oxo-4-phenylbutyl] dimethylphosphinate] | 6000 |  | 
18 | CCCCCP(=O)(CCCCC)OCC(=O)[C@H](Cc1ccccc1)NC(=O)[C@H](CC(C)C)NC(=O)OCc1ccccc1 [Example 53, (3S)-[3-[(N-Benzyloxycarbonyl-L-leucyl)amino]-2-oxo-4-phenylbutyl] dipentylphosphinate] |  | 19 | 
19 | CC(C)C[C@H](NC(=O)OCc1ccccc1)C(=O)N[C@@H](Cc1ccccc1)C(=O)COP(=O)(CCc1ccccc1)CCc1ccccc1 [Example 54, (3S)-[3-[(N-Benzyloxycarbonyl-L-leucyl)amino]-2-oxo-4-phenylbutyl] bis(2-phenylethyl)phosphinate] | 8000 | 15 | 
20 | Cc1ccccc1P(=O)(OCC(=O)[C@H](Cc1ccccc1)NC(=O)[C@H](CC(C)C)NC(=O)OCc1ccccc1)c1ccccc1C [Example 55, (3S)-[3-[(N-Benzyloxycarbonyl-L-leucyl)amino]-2-oxo-4-phenylbutyl] bis(2-methylphenyl)phosphinate] | 31000 |  | 
21 | Cc1ccccc1P(=O)(OCC(=O)[C@H](Cc1ccccc1)NC(=O)[C@H](CC(C)C)NC(=O)OC(C)(C)C)c1ccccc1C [Example 56, (3S)-[3-[(N-t-Butoxycarbonyl-L-leucyl)amino]-2-oxo-4-phenylbutyl] bis(2-methylphenyl)phosphinate] | 22000 |  | 
22 | COc1ccc(P(=O)(OCC(=O)[C@H](Cc2ccccc2)NC(=O)[C@H](CC(C)C)NC(=O)OCc2ccccc2)c2ccc(OC)cc2)cc1 [Example 57, (3S)-[3-[(N-Benzyloxycarbonyl-L-leucyl)amino]-2-oxo-4-phenylbutyl] bis(4-methoxyphenyl)phosphinate] | 85000 | 85 | 
23 | COc1ccccc1P(=O)(OCC(=O)[C@H](Cc1ccccc1)NC(=O)[C@H](CC(C)C)NC(=O)OCc1ccccc1)c1ccccc1 (stereo partly drawn) [Example 58, (3S)-[3-[(N-Benzyloxycarbonyl-L-leucyl)amino]-2-oxo-4-phenylbutyl] (2-methoxyphenyl)(phenyl)phosphinate] | 150000 |  | 
24 | COc1cccc(P(=O)(OCC(=O)[C@H](Cc2ccccc2)NC(=O)[C@H](CC(C)C)NC(=O)OCc2ccccc2)c2ccccc2)c1 (stereo partly drawn) [Example 59, (3S)-[3-[(N-Benzyloxycarbonyl-L-leucyl)amino]-2-oxo-4-phenylbutyl] (3-methoxylphenyl)(phenyl)phosphinate] | 163000 |  | 
25 | CCP(=O)(OCC(=O)[C@H](Cc1ccccc1)NC(=O)[C@H](CC(C)C)NC(=O)OCc1ccccc1)c1ccccc1 (stereo partly drawn) [Example 60, (3S)-[3-[(N-Benzyloxycarbonyl-L-leucyl)amino]-2-oxo-4-phenylbutyl] (ethyl) (phenyl)phosphinate] |  | 51 | kobs/I x 10^-3 M^-1s^-1 [1]: 6 x 10^-3 M^-1s^-1
26 | CC(C)C[C@H](NC(=O)OCc1ccccc1)C(=O)N[C@@H](Cc1ccccc1)C(=O)COP1(=O)CC=CC1 [Example 63, (3S)-1-[[3-[(N-Benzyloxycarbonyl-L-leucyl)amino]-2-oxo-4-phenylbutyl]oxy]phosphol-3-ene 1-oxide] |  | 22 | 
